Where two headings read alike, the source gives them in different places.
Columns and labels:
[1] = test system: Escherichia coli, Staphylococcus aureus and Pseudomonas aeruginosa strains; assay: Chessboard technique, summary statements over all strains and combinations tested; format: cell-based; settings: strain not stated
Source text: 1.3. Procedure: Chessboard Technique
The same procedure is followed for the Cx1. […] Thus 64 ATB/Cx1 combinations are obtained.
The FIC (Fractional Inhibitory Concentration Index) value is defined by the following formula: […]
When FIC≦0.5, there is a synergistic effect between antibiotic A and antibiotic B.
When 0.5<FIC≦1, there is an additive effect between antibiotic A and antibiotic B.
When 1<FIC≦4, there is an indifferent effect between antibiotic A and antibiotic B.
When FIC>4, there is an antagonistic effect between antibiotic A and antibiotic B.
For each strain and each antibiotic/Cx1 combination, the experiments were repeated a minimum of 3 times.

[2] = test system: Staphylococcus aureus strain ATCC 29213 (wild type); assay: MIC of the compounds used alone, microdilution in a liquid medium (CLSI); format: cell-based; settings: Staphylococcus aureus
Source text: (§1) The MICs of the antibiotics were previously defined for each strain, by the method of microdilution in a liquid medium (CLSI (Clinical and Laboratory Standards Institute), 2003).

[3] = test system: MRSA strain without associated resistance (SaR1); assay: as above; format: cell-based, Staphylococcus aureus; settings: Staphylococcus aureus, MRSA
Source text: as §1

[4] = as above; format: cell-based, Staphylococcus aureus; settings: Staphylococcus aureus, MRSA
Source text: as §1

[5] = test system: MRSA strain having a resistance to the aminoglycosides and fluoroquinolones (SaR3); assay: as above; format: cell-based, Staphylococcus aureus; settings: Staphylococcus aureus, MRSA
Source text: as §1

[6] = test system: PaR5: Pseudomonas aeruginosa; assay: Antibiogram by the disk diffusion technique; format: cell-based
Protocol: (§2) The bacterial and antibiogramidentification is carried out by the VITEK 2 system (bioMérieux) and by the disk diffusion technique

[7] = test system: EcR3: ESBL-Producing Escherichia coli; assay: Antibiogram by the disk diffusion technique; format: cell-based
Protocol: The bacterial and antibiogramidentification is carried out by the VITEK 2 system (bioMerieux) and by the disk diffusion technique

[8] = test system: EcR1: Penicillinase-Producing Escherichia coli without Associated Resistance; assay: Antibiogram by the disk diffusion technique; format: cell-based
Protocol: 5.1 EcR1: Penicillinase-Producing Escherichia coli without Associated Resistance The bacterial and antibiogramidentification is carried out by the VITEK 2 system (bioMérieux) and by the disk diffusion technique.

[9] = test system: Pseudomonas aeruginosa strain PaR2; assay: microbe, parasite or virus in culture; format: cell-based; settings: antibiotic alone (second value of cell)
Source text: as §1

[10] = test system: Pseudomonas aeruginosa strain ATCC 27853 (wild type); assay: MIC of the compounds used alone, microdilution in a liquid medium (CLSI); format: cell-based; settings: antibiotic alone (second value of cell); P. aeruginosa ATCC 27853
Source text: as §1

[11] = test system: Pseudomonas aeruginosa strain PaR3; assay: as above; format: cell-based; settings: antibiotic alone (second value of cell)
Source text: as §1

[12] = test system: mucoid strain of Pseudomonas aeruginosa PaR5; assay: as above; format: cell-based; settings: antibiotic alone (second value of cell)
Source text: as §1

[13] = test system: PaR3: Pseudomonas aeruginosa; assay: Antibiogram, MIC by the VITEK 2 system; format: cell-based
Protocol: The bacterial and antibiogramidentification is carried out by the VITEK 2 system (bioMérieux)

[14] = test system: PaR2: Pseudomonas aeruginosa; format: cell-based
Protocol: as §2

Molecule: [H]/N=C(/N)N[C@H]1[C@H](O)[C@@H](O)[C@H](O[C@@H]2O[C@@H](C)[C@](O)(C=O)[C@H]2O[C@@H]2O[C@@H](CO)[C@H](O)[C@@H](O)[C@@H]2NC)[C@@H](N/C(N)=N\[H])[C@@H]1O [Streptomycin]
- interaction between the antibiotic and Cx1 [1]: synergism
- MIC ([2]; ATCC29213, antibiotic alone (second value of cell), S. aureus ATCC 29213, read-out: Initial MICs): 4 mg/L
- MIC ([3]; antibiotic alone (second value of cell), SaR1, read-out: MIC): 4 µg/mL
- MIC ([4]; antibiotic alone (second value of cell), SaR4, read-out: MIC): 4 µg/mL
- MIC ([5]; antibiotic alone (second value of cell), SaR3, read-out: MIC): 4 µg/mL

Molecule: Colimycin
- Diameter ([6]; PaR5, Table I1): 23 mm
- Results ([6]; PaR5, Table I1, against Dmin-Dmax): Susceptible
- diameter in mm ([6]; disk diffusion inhibition diameter, strain PaR5): 23 mm
- CA-SFM Interpretation ([6]; disk diffusion, PaR5, versus critical diameter CA-SFM 2011): Susceptible
- CLSI Interpretation ([6]; disk diffusion, PaR5, versus critical diameter CLSI 2011): Susceptible
- CA-SFM Interpretation ([7]; Cd CA-SFM 2011): Susceptible
- Diameter ([7]; Table C1): 16 mm
- Results ([7]; Table C1, against Dmin Dmax): Susceptible
- diameter in mm ([7]; Table C2): 16 mm
- MIC mg/L (diameter in mm) ([8]; EcR1, cells that print a diameter, Table A2): 15 mm
- CA-SFM Interpretation ([8]; EcR1, diameter against CA-SFM 2011 limits): Susceptible
- EUCAST Interpretation ([8]; EcR1, diameter against EUCAST 2011 limits): Resistant
- Diameter ([8]; EcR1, disk diffusion, Table A1): 15 mm
- Results ([8]; EcR1, interpretation of the diameter against Dmin Dmax, Table A1): Susceptible
- MIC [9]: 8 µg/mL
- MIC [10]: 4 µg/mL
- MIC [11]: 8 µg/mL
- MIC [12]: 16 µg/mL
- CA-SFM Interpretation ([13]; Cc CA-SFM 2011): Susceptible
- CLSI Interpretation ([13]; Cc CLSI 2011): Susceptible
- EUCAST Interpretation ([13]; Cc EUCAST 2011): Susceptible
- MIC ([13]; Table H1): ≦0.5
- Results ([13]; Table H1): Susceptible
- MIC mg/L ([13]; Table H2): ≦0.5 mg/L
- CA-SFM Interpretation ([14]; Cd CA-SFM 2011): Susceptible
- CLSI Interpretation ([14]; Cd CLSI 2011): Susceptible
- Diameter ([14]; Table G1): 20 mm
- Results ([14]; Table G1, against Dmin-Dmax): Susceptible
- diameter in mm ([14]; Table G2): 20 mm

Molecule: CN(C)c1cc(NC(=O)CNC(C)(C)C)c(O)c2c1C[C@H]1C[C@H]3[C@H](N(C)C)C(O)=C(C(N)=O)C(=O)[C@@]3(O)C(O)=C1C2=O [Tigecycline]
- interaction between the antibiotic and Cx1 [1]: synergism
- MIC ([2]; ATCC29213, read-out: Initial MICs (mg/L)): 0.25 mg/L
- MIC [3]: 0.25 µg/mL
- MIC [4]: 0.25 µg/mL
- MIC [5]: 0.25 µg/mL
